Measured values taken from publication PMC6269003, “Two New Coumarins from Micromelum falcatum with Cytotoxicity and Brine Shrimp Larvae Toxicity” (Molecules, 2012).
Converted amounts (≈) assume the structure as drawn.

How the values were obtained:
brine shrimp larvae = assay: in vivo; conditions: for LD50 (brine shrimp): brine shrimp larvae, 96 well plates, 24 h incubation; for LC50 against brine shrimp larvae: 96 well plates assay
Procedure: (§1) According to the method described by Wanyoike, brine shrimp eggs (Ocean Star International, Inc., USA) were hatched in a large beaker containing natural sea water (South China Sea) and they were cultured at room temperature for 48 h. With the help of a light source, the larvae grouped together on one side of the vessel and were easily collected for the assay. […] Each test was processed in triplicate with approximate ten larvae. Brine shrimps were counted under a magnifying glass after 24 h of incubation and maintaining the 96 well plates under illumination. The controls were prepared in the same manner except that the test samples were omitted.

[1] = design: method as in PMID 10378778; conditions: cited from earlier work
Lewis lung carcinoma = system: Lewis lung carcinoma; design: method as in PMID 490172; conditions: mice, 1.25 mg/Kg; cited from earlier work
[2] = system: P-388 lymphocytic leukemia; design: method as in PMID 490172; conditions: mice, 10 mg/Kg; cited from earlier work
[3] = system: mammary cancer (F10) cell line; assay: antiproliferative MTT assay, F10; type: cell-based; conditions: MTT method, 72 h
Procedure: (§2) Antiproliferative activities of compounds were evaluated by the MTT method using mammary cancer (F10) and lung cancer (HvEvc) cell lines. In MTT assay, the cell suspensions (200 μL) at a density of 1 × 10^5 cells mL^−1 were plated in 96-well microtiter plates and incubated for 24 h at 37 °C in a humidified incubator at 5% CO2. The tested compound solution (2 μL in DMSO) at different concentrations was added to each well and further incubated for 72 h in the same condition. Then, the MTT solution (50 μL) was added to each well and incubated for 4 h. The old medium (150 μL) containing MTT was then gently replaced by DMSO. Absorbance was then determined on a Spectra Max Plus plate reader at 490 nm.

[4] = system: lung cancer (HvEvc) cell line; assay: antiproliferative MTT assay, HvEvc; type: cell-based; conditions: MTT method, 72 h
Procedure: as §2

in vivo = conditions: brine shrimp, in vivo, other: larvae exposed in sea water in 96 well plate, LC50 against brine shrimp larvae; 96 well plates assay
Procedure: as §1

[5] = system: P-388 lymphocytic leukemia; design: method as in doi:10.1021/jo00150a028; conditions: in vitro; cited from earlier work

Row | Compound | LD50 (brine shrimp) (brine shrimp larvae) [µg/mL] | LC50 against brine shrimp larvae (brine shrimp larvae) [µM] | other results
1 | COc1cc2oc(=O)ccc2cc1C=O [Compound 4, 6-formyl-7-methoxycoumarin] | >500 |  | 
2 | C=C(C)[C@@H](O)[C@@H](O)c1c(OC)ccc2ccc(=O)oc12 [murrangatin] |  |  | anti-tumor promoting activity [1]: valuable anti-tumor promoting agents
3 | COc1ccc2ccc(=O)oc2c1C(C=O)=C(C)C [Compound 5, murralongin] | >500 |  | 
4 | COc1cc2oc(=O)ccc2cc1[C@@H]1OC(=O)[C@@]2(C)O[C@@H]12 [micromelin] |  |  | T/C (Lewis lung carcinoma): 228%; T/C [2]: 149%
5 | microfalcatin isovalerate [Compound 14] |  |  | IC50 (F10) [3]: 112.0 µg/mL
6 | C=C(C)C(CO)c1c(OC)ccc2ccc(=O)oc12 (stereo not shown) [Compound 10, isomurralonginol] | 50.6 | < 500 | IC50 (HvEvc) [4]: 72.6 µg/mL (≈ 279 µM)
7 | COc1ccc2ccc(=O)oc2c1/C=C/C(C)(C)O [Compound 6, murraol] | 199.3 | < 500 | IC50 (HvEvc) [4]: 172.5 µg/mL (≈ 663 µM)
8 | COc1ccc2ccc(=O)oc2c1/C=C/C(CO)COC(=O)CC(C)C (stereo not shown) [Compound 1, 7-Methoxy-8-(2-hydroxmethyl-1-O-isovaleryl-4-butenyl)coumarin] | 6.8 | < 10 | IC50 [4]: 35.7 µg/mL (≈ 99.1 µM); LC50 at 24 h (in vivo): 6.8 µg/mL (≈ 18.9 µM)
9 | murralonginol [Compound 8] | >500 |  | 
10 | arscotin [Compound 7] | 118.5 | < 500 | 
11 | C=C(C)[C@H](O)[C@@H](O)c1c(OC)ccc2ccc(=O)oc12 [minumicrolin] |  |  | anti-tumor promoting activity [1]: valuable anti-tumor promoting agents
12 | methoxymicrominutinin [Compound 13] | >500 |  | 
13 | (E)-osthenone [Compound 9] | >500 |  | 
14 | C=C(C)C(OC1OC(CO)C(O)C(O)C1O)C(O)c1c(OC)ccc2ccc(=O)oc12 (stereo not drawn) [Compound 2, 7-Methoxy-8-(1-hydroxy-2-O-β-glucopyranosyl-3-methyl-4-butene-1-yl)coumarin] | 29.1 |  | IC50 [4]: 68.5 µg/mL (≈ 156 µM); IC50 [3]: 23.6 µg/mL (≈ 53.8 µM); LC50 at 24 h (in vivo): < 500 µg/mL
15 | microminutin [Compound 3] | 107.3 | < 500 | ED50 [5]: 3.7 µg/mL; IC50 (F10) [3]: 82.9 µg/mL
16 | C=C(C)C(O)C(OC)c1c(OC)ccc2ccc(=O)oc12 (stereo not shown) [Compound 11, murracarpin] | 158.5 | < 500 | IC50 (HvEvc) [4]: 124.3 µg/mL (≈ 428 µM)
17 | microminutinin [Compound 12] | >500 |  | 
